Measurements reported in patent US8722665B2, “Cinnamido-pyrrolo[2,1-C][1,4]benzodiazepines as potential anticancer agents and process for the preparation thereof” (Council of Scientific & Industrial Research, priority 2008, dated 2014).

Key:
[1] = system: duplex-form calf thymus DNA (CT-DNA); assay: Thermal denaturation studies with calf thymus DNA; assay type: binding; settings: [PBD]:[DNA] molar ratio 1:5, CT-DNA 100 μM, ligand 20 μM, pH 7.00
Description: Compounds have been subjected to thermal denaturation studies with duplex-form calf thymus DNA (CT-DNA) using an modification of a reported procedure (Newman, M. S. Carcinog-compr. Surv. 1976, 1, 203; (b) Hecht, S. S.; Loy, M.; Hoffman, Carcinog-compr. Surv. 1976, 1, 325). Working solutions in aqueous buffer (10 mM NaH2PO4/Na2HPO4, 1 mM Na2EDTA, pH 7.00+0.01) containing CT-DNA (100 μm in phosphate) and the PBD (20 μm) have been prepared by addition of concentrated PBD solutions in DMSO to obtain a fixed [PBD]/[DNA] molar ratio of 1:5. The DNA-PBD solutions have been incubated at 37° C. for 0 and 18 h prior to analysis. Samples have been monitored at 260 nm using a Beckman DU-800 spectrophotometer fitted with high performance temperature controller, and heated at 1° C. min^−1 in the 40-110° C. range. DNA helix→coil transition temperatures (Tm) have been obtained from the maxima in the d(A260)/dT derivative plots. Drug-induced alterations in DNA melting behavior are given by: ΔTm=Tm(DNA+PBD)−Tm(DNA alone), where the Tm value for the PBD-free CT-DNA is 69.1±0.01.
The DNA binding activity for these Cinnamido-pyrrolo[2,1-c][1,4]benzodiazepines have been examined by thermal denaturation studies using calf thymus (CT) DNA. […] The data for the compounds 8b&d, 11b&d, 14b&d and 17b&d is included in Table 1 for comparison.

[2] = system: sixty human tumour cell lines; assay: In vitro cytotoxicity (SRB), mean graph midpoints; assay type: cell-based; settings: 48 h exposure
Description: The compounds were evaluated for in vitro anticancer activity against sixty human tumour cells derived from nine cancer types (leukemia, non-small-cell lung, colon, CNS, melanoma, ovarian, prostate, and breast cancer) as shown in Table 1a. For each compound, dose response curves for each cell line were measured at a minimum of five concentrations at 10 fold dilutions. A protocol of 48 h continuous drug exposure was used and a sulforhodamine B (SRB) protein assay was used to estimate cell viability or growth. The concentration causing 50% cell growth inhibition (GI50), total cell growth inhibition (TGI 0% growth) and 50% cell death (LC50, −50% growth) compared with the control was calculated. The Log10 GI50 (concentration in mol/L causing 50% growth inhibition) values for Cinnamido-pyrrolo[2,1-c][1,4]benzodiazepine (8b) is listed in Table 2.

## COc1cc(/C=C/C(=O)N2CCN(C(=O)c3cc(OC)c(OC)c(OC)c3)CC2)ccc1OCCCOc1cc2c(cc1OC)C(=O)N1CCC[C@H]1C=N2 [8b, 7-methoxy-8-{3-(2-methoxy-4-(E)-3-oxo-3-[4-(3,4,5-trimethoxybenzoyl)piperazino]-1-propenylphenoxy)propoxy}-(11aS)-2,3,5,11^a-tetrahydro-5H-pyrrolo[2,1-c][1,4]benzo-diazepine-5-one]
[1]; 0 h incubation at 37° C.
  (ΔTm ° C.) after incubation at 37° C. for 0 h: 1.2 °C
[1]; 18 h incubation at 37° C.
  (ΔTm ° C.) after incubation at 37° C. for 18 h: 2.1 °C
[2]
  Log10 GI50 mean graph midpoint (MG_MID): −6.48 mol/L
  Log10 LC50 mean graph midpoint (MG_MID): −4.5
  Log10 TGI mean graph midpoint (MG_MID): −5.59
